Converted amounts (≈) assume the structure as drawn. Read-outs that look alike come from different tables or passages of the source. Marks after values point to notes of the source that are not given here.
What was measured:
B. subtilis = assay: Minimal Inhibitory Concentration (MIC) determination, 96 well plates; type: cell-based, Bacillus subtilis; settings: Bacillus subtilis; HBI medium, 16 to 18 hours at 37°C; read-out: MIC (µg/ml) B. subtilis
Procedure, shortened: (§1)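 Broth growth in Heart-Brain Infusion medium, seeded at about 1x10^5 CFU/ml, 16 to 18 hours at 37°C. Growth read at OD 600 nm as percent of untreated control; five concentrations per drug, five data points each, MIC reported in µg/ml.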

E. fecalis = assay: as above; type: cell-based, Enterococcus fecalis; settings: Enterococcus; HBI medium, 16 to 18 hours at 37°C; read-out: MIC (µg/ml) E. fecalis
Procedure, shortened: as §1

E. coli = assay: as above; type: cell-based, Escherichia coli; settings: Escherichia coli; HBI medium, 16 to 18 hours at 37°C; read-out: MIC (µg/ml) E. coli
Procedure, shortened: (§2)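 Cultures seeded at approximately 1x10^5 CFU/ml in Heart-Brain Infusion medium were exposed to five compound concentrations, five data points each, for 16 to 18 hours at 37°C. Growth at OD 600 nm was expressed as percent of control, and MIC values are given in µg/ml.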

B. subtilis Pol IIIC = target: T1, B. subtilis Pol IIIC (Bacillus subtilis, UniProt P13267); assay: Polymerase IIIC (Pol IIIC) assay, determination of Ki values; type: biochemical; settings: assay in absence of dGTP or dATP, Ki is the concentration that reduces control polymerase IIIC activity by 50 percent; for Ki: Ki (µM) Pol IIIC
T1 construct: made in house
T1 sequence (P13267 whole entry): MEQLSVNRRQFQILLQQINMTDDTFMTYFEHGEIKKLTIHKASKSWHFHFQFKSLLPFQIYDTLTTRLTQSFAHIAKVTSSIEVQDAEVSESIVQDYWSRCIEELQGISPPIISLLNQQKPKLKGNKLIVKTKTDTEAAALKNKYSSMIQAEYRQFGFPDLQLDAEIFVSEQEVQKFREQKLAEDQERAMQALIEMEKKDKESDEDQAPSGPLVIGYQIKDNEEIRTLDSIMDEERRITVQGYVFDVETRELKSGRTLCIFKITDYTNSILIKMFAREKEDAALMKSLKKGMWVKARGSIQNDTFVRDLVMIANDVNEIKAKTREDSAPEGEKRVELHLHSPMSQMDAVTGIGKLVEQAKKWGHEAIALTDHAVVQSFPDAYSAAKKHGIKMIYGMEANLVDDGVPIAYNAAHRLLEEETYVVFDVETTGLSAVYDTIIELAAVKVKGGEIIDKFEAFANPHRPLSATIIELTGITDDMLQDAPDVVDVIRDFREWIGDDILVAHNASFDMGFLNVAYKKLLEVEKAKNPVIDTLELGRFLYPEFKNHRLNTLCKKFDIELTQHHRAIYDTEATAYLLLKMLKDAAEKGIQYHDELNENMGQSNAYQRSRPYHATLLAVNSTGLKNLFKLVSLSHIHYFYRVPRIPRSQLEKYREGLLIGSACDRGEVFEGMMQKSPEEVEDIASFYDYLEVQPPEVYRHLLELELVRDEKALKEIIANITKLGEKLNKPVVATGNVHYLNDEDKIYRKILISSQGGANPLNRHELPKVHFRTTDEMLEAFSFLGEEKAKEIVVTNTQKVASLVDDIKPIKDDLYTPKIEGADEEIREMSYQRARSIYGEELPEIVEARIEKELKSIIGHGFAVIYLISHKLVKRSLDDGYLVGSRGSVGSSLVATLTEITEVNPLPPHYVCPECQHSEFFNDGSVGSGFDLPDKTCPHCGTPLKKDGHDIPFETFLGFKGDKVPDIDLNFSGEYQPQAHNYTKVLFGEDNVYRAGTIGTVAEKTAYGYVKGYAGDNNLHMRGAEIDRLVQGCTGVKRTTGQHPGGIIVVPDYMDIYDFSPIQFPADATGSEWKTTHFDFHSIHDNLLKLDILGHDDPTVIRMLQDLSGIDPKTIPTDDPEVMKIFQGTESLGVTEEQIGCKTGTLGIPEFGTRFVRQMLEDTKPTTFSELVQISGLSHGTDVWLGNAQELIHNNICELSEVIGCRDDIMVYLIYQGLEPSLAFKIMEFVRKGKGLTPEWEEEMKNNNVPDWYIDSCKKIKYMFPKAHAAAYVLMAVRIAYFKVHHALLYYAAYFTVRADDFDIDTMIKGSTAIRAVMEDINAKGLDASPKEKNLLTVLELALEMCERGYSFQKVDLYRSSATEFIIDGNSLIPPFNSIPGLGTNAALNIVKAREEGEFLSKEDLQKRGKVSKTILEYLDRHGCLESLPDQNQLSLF
Procedure, shortened: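 Isolated B. subtilis Pol IIIC (0.025–0.06 units) run 10 min at 30°C in 30 mM Tris pH 7.5, 10 mM Mg acetate, 4 mM DTT, 20% glycerol. Substrates were 0.4 mg/ml activated calf thymus DNA, 25 µM dNTPs and 10 µM [3H]dTTP, with dGTP or dATP omitted per compound structure.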

S. aureus = assay: Minimal Inhibitory Concentration (MIC) determination, 96 well plates; type: cell-based, Staphylococcus aureus; settings: Staphylococcus aureus, read-out: MIC (µg/ml) S. aureus
Procedure, shortened: as §2

S.aureus (Smith) = assay: as above; type: cell-based, Staphylococcus aureus; settings: Staphylococcus aureus
Procedure, shortened: as §1

E. fecium = assay: as above; type: cell-based, Enterococcus fecium; settings: Enterococcus; HBI medium, 16 to 18 hours at 37°C; read-out: MIC (µg/ml) E. fecium
Procedure, shortened: as §1

MRSA 1123 = assay: MIC against clinically relevant strains; type: cell-based; settings: Staphylococcus aureus, methicillin resistant S. aureus strain
Procedure: (§3) The following methods were used to characterize representative compounds. Minimal Inhibitory Concentration (MIC) determinations. MIC values were determined in 96 well plates, with bacterial growth monitored at OD 600 nm in 200µl following an initial bacterial seeding at approximately 1x10^5 colony forming units (CFU)/ml. Each drug is evaluated at five concentrations, with five data points at each dilution. MIC values (µg/ml) were determined against actively growing cultures in Heart-Brain Infusion (HBI) medium. Cell growth in cultures supplemented with a test compound was calculated as a percent of control at OD 600 nm after 16 to 18 hours at 37°C. This plate format conserves test compound and provides precise, quantitative data with low standard deviation determinations. Polymerase IIIC (Pol IIIC) assay. DNA polymerase activity (or inhibition thereof) was measured in a 96-well plate format. B. subtilis Pol IIIC was isolated as described by Hammond and Brown (Protein Expr. Purif., 3: 65-70 (1992)). Each 25 µl assay contained 30 mM Tris, pH 7.5, 10 mM magnesium acetate, 4 mM dithiothreitol, 20% glycerol, with 25 µM dATP, dCTP, dGTP and 10 µM dTTP (^3H-labelled at 1.44 Ci/mmole) and 0.4 mg/ml activated calf thymus DNA as substrates, as described previously (see Barnes et al, op. cit). Assays were initiated by the addition of 0.025 to 0.06 units of enzyme 1 unit is the amount required to incorporate 250 pmoles of [^3H] dTMP in a standard assay), incubated for 10 minutes at 30°C and terminated by the addition of 200 µl of cold 10% trichloroacetic acid (TCA),10 mM sodium pyrophosphate. Precipitated labeled DNA was collected on glass fiber filter plates, washed, dried, and counted in a liquid scintillation counter. Determination of Ki values. DNA polymerase activity was measured in a 96-well plate format in the absence of dGTP or dATP, depending on the structure of the test compound. Each 25 µl assay contained 30 mM Tris, pH 7.5, 10 mM magnesium acetate, 4 mM dithiothreitol, 20% glycerol, with 25 µM dATP, dCTP, and 10 µM dTTP (^3H-labelled at 1.44 Ci/mmole) and 0.4 mg/ml activated calf thymus DNA as substrates, as described previously. To each well were added 2 µl of compound solution to give final concentrations ranging from 20 - 0.027 µg/ml in the assay. Assays were initiated by the addition of 0.025 to 0.06 units of enzyme (1 unit is the amount required to incorporate 250 pmoles of [^3H] dTMP in a standard assay), incubated for 10 minutes at 30 °C and terminated by the addition of 200 µl of cold 10% trichloroacetic acid, 10 mM sodium pyrophosphate. Precipitated labeled DNA was collected on glass fiber filter plates, washed, dried, and counted in a liquid scintillation counter. Ki is the concentration of test compound that reduces the control polymerase IIIC activity by 50 percent.
(§4) Compounds were also tested for antibacterial activity against certain clinically relevant strains, e.g., methicillin sensitive (MSSA) and methicillin resistant (MRSA) strains of Staphylococcus aureus.

MRSA1094 = assay: MIC against clinically relevant strains; type: cell-based; settings: Staphylococcus aureus; methicillin resistant S. aureus strain
Procedure: as §3, §4

MSSA108 = assay: MIC against clinically relevant strains; type: cell-based; settings: Staphylococcus aureus; methicillin sensitive S. aureus strain
Procedure: as §3, §4

MRSA1132 = assay: MIC against clinically relevant strains; type: cell-based; settings: Staphylococcus aureus; methicillin resistant S. aureus strain
Procedure: as §3, §4

VRE 700802 = assay: In vivo efficacy of Compound 70 in mouse models; set-up: species or system Enterococcus faecalis; settings: mice, 3x10^8 CFU/mouse + 5% Mucin; positive control, 100mg/kg, t=0
Procedure: (§5) Swiss Webster mice, ca. 20 g each, were infected with Staphylococcus aureus (Smith strain) by the intraperitoneal route. Test compounds (2, 4, 5, 6, 7, 8, 10, 12) were dissolved in 10% dimethylsulfoxide in peanut oil to a concentration of 2 mg/ml. Vancomycin was used as positive control drug (i.e., protection from lethal infection). Fifteen minutes after infection, test compounds, vancomycin, or vehicle alone were given intraperitoneally to groups of five mice each. Animals were monitored for three days, and the number of mice surviving was tabulated for each treatment.
(§6) Using the same basic procedure as described above, the in vivo efficacy of Compound 70 was also evaluated at various doses in mice infected with S. aureaus (Smith), MRSA 1094, Enterococcus faecalis, or vancomycin-resistant Enterococcus faecalis strain VRE 700802. […] Negative controls were mice infected that received no treatment. Mucin was employed as an adjuvant to facilitate bacterial infection in mice, where indicated.

MRSA 1094 = assay: In vivo efficacy of Compound 70 in mouse models; set-up: species or system Staphylococcus aureus; settings: mice, 10^7 CFU/mouse + 5% Mucin; positive control, 30mg/kg, t=0
Procedure: as §5, §6

[1] = system: Enterococcus faecalis (ATCC 29212); assay: In vivo efficacy of Compound 70 in mouse models; settings: mice, 3x10^7 CFU/mouse + 5% Mucin; positive control, 100mg/kg, t=0
Procedure: as §5, §6

[2] = system: Staphylococcus aureus (Smith); assay: In vivo efficacy of Compound 70 in mouse models; settings: mice, 10^8 CFU/mouse; positive control, 30mg/kg, t=0
Procedure: as §5, §6

[3] = HBI medium, 16 to 18 hours at 37°C
[4] = HBI medium, 16 to 18 hours at 37°C, read-out: MIC (µg/ml) S.aureus (Smith)
[5] = table of MSSA/MRSA strains, read-out: MIC (µg/ml) S. aureus (Smith)

Row | SMILES | MIC (B. subtilis) [µg/mL] | MIC (E. fecalis) [µg/mL] | MIC (E. coli) [µg/mL] | Ki (B. subtilis Pol IIIC) [µM] | MIC (S. aureus; [3]) [µg/mL] | MIC (S. aureus; table of MSSA/MRSA strains) [µg/mL] | MIC (S.aureus (Smith); [4]) [µg/mL] | MIC (S.aureus (Smith); [5]) [µg/mL] | MIC (E. fecium) [µg/mL] | MIC (MRSA 1123) [µg/mL] | MIC (MRSA1094) [µg/mL] | MIC (MSSA108) [µg/mL] | MIC (MRSA1132) [µg/mL] | % Survival at 72 hours (VRE 700802) | Ki (µM) Pol IIIC (B. subtilis Pol IIIC) | % Survival at 72 hours (MRSA 1094) | % Survival at 72 hours [1] | % Survival at 72 hours [2]
1 | CCc1cc(Nc2cc(=O)n(CCCCN3CCN(c4c(F)cc5c(=O)c(C(=O)O)cn(CC)c5c4Cl)CC3)c(=O)[nH]2)ccc1C [Compound 5, 3-{4-[1-(1-ethyl-3-carboxy-4-oxo-6-fluoro-8-chloro-7-quinolyl)-4-piperazinyl]butyl}-6-(3-ethyl-4-methylanilino)uracil] | 0.078 (≈ 0.119 µM) | 1.25 (≈ 1.91 µM) | 10 (≈ 15.3 µM) | 0.016 | 0.156 (≈ 0.239 µM) | 0.156 (≈ 0.239 µM) | 0.156 (≈ 0.239 µM) | 0.156 (≈ 0.239 µM) | 2.5 (≈ 3.83 µM) | 0.625 (≈ 0.957 µM) | 0.625 (≈ 0.957 µM) | 0.625 (≈ 0.957 µM) | 0.625 (≈ 0.957 µM) | – | – | – | – | –
2 | CCc1cc(Nc2cc(=O)n(CCCCN3CCN(c4nc5c(cc4F)c(=O)c(C(=O)O)cn5CC)CC3)c(=O)[nH]2)ccc1C [Compound 6, 3-{4-[1-(1-ethyl-3-carboxy-4-oxo-6-fluoro-8-aza-7-quinolyl)-4-piperazinyl]butyl}-6-(3-ethyl-4-methylanilino)uracil] | 0.156 (≈ 0.252 µM) | 1.25 (≈ 2.02 µM) | > 20 | 0.018 | 0.625 (≈ 1.01 µM) | 0.625 (≈ 1.01 µM) | 0.625 (≈ 1.01 µM) | 0.625 (≈ 1.01 µM) | 1.25 (≈ 2.02 µM) | 0.625 (≈ 1.01 µM) | 1.25 (≈ 2.02 µM) | 0.625 (≈ 1.01 µM) | 0.625 (≈ 1.01 µM) | – | – | – | – | –
3 | CCc1cc(Nc2cc(=O)n(CCCCN3CCN(c4c(F)cc5c(=O)c(C(=O)O)cn(CC)c5c4F)CC3)c(=O)[nH]2)ccc1C [Compound 7, 3-{4-[1-(1-ethyl-3-carboxy-4-oxo-6,8-difluoro-7-quinolyl)-4-piperazinyl]butyl}-6-(3-ethyl-4-methylanilino)uracil] | 0.156 (≈ 0.245 µM) | 1.25 (≈ 1.96 µM) | > 20 | 0.021 | 0.625 (≈ 0.982 µM) | 0.625 (≈ 0.982 µM) | 1.25 (≈ 1.96 µM) | 0.625 (≈ 0.982 µM) | 1.25 (≈ 1.96 µM) | 0.625 (≈ 0.982 µM) | 0.625 (≈ 0.982 µM) | 0.313 (≈ 0.492 µM) | 0.625 (≈ 0.982 µM) | – | – | – | – | –
4 | CCc1cc(Nc2cc(=O)n(CCCCN3CCN(c4cc5c(cc4F)c(=O)c(C(=O)O)cn5-c4ccc(F)cc4F)CC3)c(=O)[nH]2)ccc1C [Compound 12, 3-{4-[1-(1-{2,4-difluorophenyl}-3-carboxy-4-oxo-6-fluoro-7-quinolyl)-4-piperazinyl]butyl}-6-(3-ethyl-4-methylanilino)uracil] | 0.156 (≈ 0.222 µM) | 2.5 (≈ 3.56 µM) | 2.5 (≈ 3.56 µM) | 0.018 | 0.313 (≈ 0.445 µM) | 0.313 (≈ 0.445 µM) | 0.313 (≈ 0.445 µM) | 0.313 (≈ 0.445 µM) | 5 (≈ 7.12 µM) | 1.25 (≈ 1.78 µM) | 0.625 (≈ 0.889 µM) | 0.625 (≈ 0.889 µM) | 0.625 (≈ 0.889 µM) | – | – | – | – | –
5 | O=C(O)c1cn(C2CC2)c2cc(N3CCNCC3)c(F)cc2c1=O [cflxn, ciprofloxacin, reference compound] | 0.156 (≈ 0.471 µM) | – | 0.078 (≈ 0.235 µM) | – | 0.156 (≈ 0.471 µM) | – | 0.078 (≈ 0.235 µM) | – | – | – | – | – | – | ciprofloxacin (100mg/kg, t=0) 90% (9/10)** | inactive | – | – | –
6 | CN[C@H](CC(C)C)C(=O)N[C@H]1C(=O)N[C@@H](CC(N)=O)C(=O)N[C@H]2C(=O)N[C@H]3C(=O)N[C@H](C(=O)N[C@H](C(=O)O)c4cc(O)cc(O)c4-c4cc3ccc4O)[C@H](O)c3ccc(c(Cl)c3)Oc3cc2cc(c3O[C@@H]2O[C@H](CO)[C@@H](O)[C@H](O)[C@H]2O[C@H]2C[C@](C)(N)[C@H](O)[C@H](C)O2)Oc2ccc(cc2Cl)[C@H]1O [vancomycin, reference compound] | – | – | – | – | – | – | – | – | – | – | – | – | – | – | – | 95% (19/20)** | vancomycin (100mg/kg, t=0) 100% (10/10)** | 100% (20/20)**

Reference: patent EP1401829B1, “NOVEL HETEROCYCLIC ANTIBACTERIAL COMPOUNDS” (Microbiotix, Inc., priority 2001, dated 2002)
